A short description of data set [1]: Induction of singlet production in methanol in presence of potassium superoxide using chemiluminescent substrate incubated for 30 mins in N2-bubbling by spectrofluorimetry relative to control. The format is functional.
Data set [2] can be described thus: Induction of singlet production in methanol in presence of potassium superoxide using chemiluminescent substrate incubated for 30 mins in liquid nitrogen temperature by spectrofluorimetry. The format is functional.
In data set [3] the test system is MCF-10A. The data set can be described thus: Cytotoxicity against human MCF10A cells assessed as reduction in cell viability at 0.1 to 100 uM incubated for 24 hrs by MTT assay. In kind it is cell-based. For orientation: Tetrazolium assays rely on reduction of a dye to a coloured formazan, in cell work by metabolically active cells.
Data set [4] can be described thus: Induction of singlet production in methanol in presence of potassium superoxide using chemiluminescent substrate by spectrofluorimetry. In kind it is functional.
A short description of data set [5]: Induction of singlet oxygen production in methanol assessed as ABDA florescence quenching in presence of potassium superoxide by spectrofluorimetry. In kind it is functional.
For data set [6], the system named is MCF7. The data set can be described thus: Cytotoxicity against human MCF7 cells assessed as reduction in cell viability at 0.1 uM incubated for 24 hrs by MTT assay. In kind it is functional, cell-based.
Data set [7] deals with PC-3. Nature of the data set: Cytotoxicity against human PC3 cells assessed as reduction in cell viability at >75 uM incubated for 24 hrs by MTT assay relative to control. The format is functional.
The test system of data set [8] is PC-3. Nature of the data set: Cytotoxicity against human PC3 cells assessed as reduction in cell viability at 0.1 to 100 uM incubated for 24 hrs by MTT assay. The format is functional, cell-based.
Data set [9] relates to MCF7. Nature of the data set: Cytotoxicity against human MCF7 cells assessed as reduction in cell viability at 0.1 to 100 uM incubated for 24 hrs by MTT assay. In kind it is functional, cell-based.
Data set [10] is described as follows: Induction of singlet production in acetate buffer using chemiluminescent substrate by spectrofluorimetry. The format is functional.
Data set [11] is described as follows: Induction of singlet oxygen production in methanol assessed as ABDA florescence quenching by spectrofluorimetry. In kind it is functional.
Data set [12] in a line: Induction of singlet oxygen production in acetate buffer assessed as ABDA florescence quenching by spectrofluorimetry. In kind it is functional.

The values that follow come from ChEMBL document CHEMBL4406844, “Single-molecule chemiluminescent photosensitizer for a self-activating and tumor-selective photodynamic therapy of cancer” (Eur J Med Chem, 2019).

SMILES strings stand for the structures. Active and inactive are the calls of the source. The rule behind the calls is not given here.

In the case of `Cc1nc2c[nH]c(-c3ccc(Br)cc3)cn-2c1=O`, the outcome in [1], in data set [2], in data set [4], in data set [5] and in data set [6] was Active. In addition, the Activity result in data set [3] is “Non-Toxic”; in data set [7], more than 50%.

For `O=c1c(Cc2ccc(O)cc2)nc2c(Cc3ccccc3)[nH]c(-c3ccc(O)cc3)cn1-2`, the outcome in data set [8] and in [10] was Active. The result in [9], in data set [1] and in data set [11] was inactive.

As to `CC(=O)Nc1cnc(Br)cn1`, the outcome in data set [12] and in [10] was Active.

Take `CC/C(=C(\c1ccccc1)c1ccc(OCCN(C)C)cc1)c1ccccc1`: the result in [9] was Active.

As to `CN(C)C(=N)NC(=N)N`, the result in data set [8] was Active.
